What was measured:
Assay in all cases: Single trichostatin A dose, 144 h follow-up, gene expression by RT-PCR (Example 6)
Format in all cases: cell-based, human
[1] = tested on: second amniotic fluid-derived cell line; details: 500 nM once at 0 h
Description: (§1) Several cell lines obtained from different amniotic fluid specimens (see Example 14) and pancreas donors (see Example 13) were tested with similar results. Two lines at similar passage number but derived from different amniotic fluid specimens are shown in Table VI-A and Table VI-B for this example. One of these cell lines was also used in examples 2 and 4 above. In addition, this example also contains comparison data in Table VI-C and Table VI-D for a single pancreatic-derived stromal line grown to early and late passage number.
(§2) Amniotic fluid derived cells or pancreatic-derived stromal cells were seeded into 24-well tissue culture plates at a density of 5000/cm^2 and cultured in AMNIOMAX (Invitrogen) or DMEM with 10% FBS, respectively, under standard cell culture conditions until confluent. After the cells reached confluency, amniotic fluid derived cells were treated once at time 0 hours with 500 nM trichostatin A. Pancreas-derived stromal cells were treated once at time 0 hours with 1.25 μM trichostatin A. Samples for RT-PCR were taken daily from zero to six days at the times indicated in Table VI.
(§3) RNA samples were obtained from the treated cultures up to 144 hours after the initial addition of trichostatin A or DMSO. Culture media was removed, the cells were washed with PBS, and RLT lysis buffer containing β-mercaptoethanol (Qiagen) was added. During culture, the medium was not changed nor was freshly prepared trichostatin A added. RNA was purified using the RNeasy Mini Kit (Qiagen), and RNA quantity and quality was determined using a spectrophotometer. cDNA was made using the iScript cDNA synthesis kit (BioRad).
(§4) Samples of 20 ng cDNA were used in each reaction to determine the expression levels of the following genes in amniotic fluid-derived cells: Gata1, HNF-3 beta, Pdx-1, insulin, and Sox17. Similarly, samples of 20 ng cDNA were used in each reaction to determine the expression level of the following genes in pancreatic-derived stromal cells: glucagon, HNF-3 beta, insulin and Pdx-1. Real-Time PCR was performed on the Applied Biosystems 7500, and data was analyzed using the accompanying software according to the methods described in Example 15.
(§5) Real-time PCR amplifcation and quantitative analysis. Unless otherwise stated, all reagents were purchased from Applied Biosystems. Real-time PCR reactions were performed using the ABI PRISM™ 7500 Sequence Detection System. TAQMAN™ FAST UNIVERSAL PCR MASTER MIX™ (ABI, CA) was used with 20 ng of reverse transcribed RNA in a total reaction volume of 20 μl. Each cDNA sample was run in duplicate to allow correction of pipetting errors. Primers and FAM-labeled TAQMAN™ probes were used at concentrations of 200 nM. The level of expression for each target gene was normalized using the pre-developed Applied Biosystem's human glyceraldehyde-3-phosphate dehydrogenase (GAPDH) endogenous control kit. Primers and probes were designed using either ABI PRISM PRIMER EXPRESS™ software or a pre-developed ABI gene analysis kit. For each gene, either one of the primers or the probe were designed to be exon-boundary spanning. This eliminated the possibility of the primers/probe binding to any genomic DNA present. The primer and probe sets are listed as follows: Pdx-1 (Hs00426216), Insulin (Hs00355773), glucagon (Hs00174967), and FoxA2 (HNF 3-beta) (Hs00232764). The remaining primers were designed using the PRIMERS program (ABI, CA). After an initial 95° C. incubation for 20 sec, samples were cycled 40 times in two stages: a denaturation step at 95° C. for 3 sec, followed by an annealing/extension step at 60° C. for 30 sec.
(§6) For each primer/probe set, a cycle time value was determined as the cycle number at which the fluorescence intensity of the PCR reaction reached a specific value in the middle of the exponential region of amplification. An increase in expression of a gene corresponded to a decrease in the number of cycles required for the fluorescence intensity to reach this value.

[2] = tested on: amniotic fluid-derived cell line; details: 500 nM once at 0 h
Description: as §1, §2, §3, §4, §5, §6

[3] = tested on: late passage (P14) pancreatic-derived stromal cell line; details: 1.25 μM once at 0 h
Description: as §1, §2, §3, §4, §5, §6

CC(/C=C/C(=O)NO)=C\[C@@H](C)C(=O)c1ccc(N(C)C)cc1 [trichostatin A]
Gata1 gene expression ([1]; 24 hrs): nd (not detectable at >40 cycles by RT-PCR)
HNF (HNF-3 beta) gene expression ([1]; 24 hrs): +++ (detectable at less than 35 cycles by RT-PCR with SE less than 0.9)
Insulin gene expression ([1]; 24 hrs): nd (not detectable at >40 cycles by RT-PCR)
Pdx-1 gene expression ([1]; 24 hrs): + (detectable between 35 and 40 cycles by RT-PCR)
sox17 gene expression ([1]; 24 hrs): +++ (detectable at less than 35 cycles by RT-PCR with SE less than 0.9)
Gata1 gene expression ([1]; 48 hrs): nd (not detectable at >40 cycles by RT-PCR)
HNF (HNF-3 beta) gene expression ([1]; 48 hrs): +++ (detectable at less than 35 cycles by RT-PCR with SE less than 0.9)
Insulin gene expression ([1]; 48 hrs): nd (not detectable at >40 cycles by RT-PCR)
Pdx-1 gene expression ([1]; 48 hrs): nd (not detectable at >40 cycles by RT-PCR)
sox17 gene expression ([1]; 48 hrs): +++ (detectable at less than 35 cycles by RT-PCR with SE less than 0.9)
Gata1 gene expression ([1]; 72 hrs): nd (not detectable at >40 cycles by RT-PCR)
HNF (HNF-3 beta) gene expression ([1]; 72 hrs): + (detectable between 35 and 40 cycles by RT-PCR)
Insulin gene expression ([1]; 72 hrs): + (detectable between 35 and 40 cycles by RT-PCR)
Pdx-1 gene expression ([1]; 72 hrs): nd (not detectable at >40 cycles by RT-PCR)
sox17 gene expression ([1]; 72 hrs): +++ (detectable at less than 35 cycles by RT-PCR with SE less than 0.9)
Gata1 gene expression ([1]; 96 hrs): nd (not detectable at >40 cycles by RT-PCR)
HNF (HNF-3 beta) gene expression ([1]; 96 hrs): + (detectable between 35 and 40 cycles by RT-PCR)
Insulin gene expression ([1]; 96 hrs): ++ (detectable at less than 35 cycles by RT-PCR with SE greater than 0.9)
Pdx-1 gene expression ([1]; 96 hrs): nd (not detectable at >40 cycles by RT-PCR)
sox17 gene expression ([1]; 96 hrs): +++ (detectable at less than 35 cycles by RT-PCR with SE less than 0.9)
Gata1 gene expression ([1]; 120 hrs): nd (not detectable at >40 cycles by RT-PCR)
HNF (HNF-3 beta) gene expression ([1]; 120 hrs): + (detectable between 35 and 40 cycles by RT-PCR)
Insulin gene expression ([1]; 120 hrs): ++ (detectable at less than 35 cycles by RT-PCR with SE greater than 0.9)
Pdx-1 gene expression ([1]; 120 hrs): nd (not detectable at >40 cycles by RT-PCR)
sox17 gene expression ([1]; 120 hrs): +++ (detectable at less than 35 cycles by RT-PCR with SE less than 0.9)
Gata1 gene expression ([1]; 144 hrs): nd (not detectable at >40 cycles by RT-PCR)
HNF (HNF-3 beta) gene expression ([1]; 144 hrs): + (detectable between 35 and 40 cycles by RT-PCR)
Insulin gene expression ([1]; 144 hrs): ++ (detectable at less than 35 cycles by RT-PCR with SE greater than 0.9)
Pdx-1 gene expression ([1]; 144 hrs): nd (not detectable at >40 cycles by RT-PCR)
sox17 gene expression ([1]; 144 hrs): +++ (detectable at less than 35 cycles by RT-PCR with SE less than 0.9)
Gata1 gene expression ([2]; 24 hrs): nd (not detectable at >40 cycles by RT-PCR)
HNF (HNF-3 beta) gene expression ([2]; 24 hrs): +++ (detectable at less than 35 cycles by RT-PCR with SE less than 0.9)
Insulin gene expression ([2]; 24 hrs): nd (not detectable at >40 cycles by RT-PCR)
Pdx-1 gene expression ([2]; 24 hrs): + (detectable between 35 cycles and 40 cycles by RT-PCR)
sox17 gene expression ([2]; 24 hrs): +++ (detectable at less than 35 cycles by RT-PCR with SE less than 0.9)
Gata1 gene expression ([2]; 48 hrs): nd (not detectable at >40 cycles by RT-PCR)
HNF (HNF-3 beta) gene expression ([2]; 48 hrs): +++ (detectable at less than 35 cycles by RT-PCR with SE less than 0.9)
Insulin gene expression ([2]; 48 hrs): nd (not detectable at >40 cycles by RT-PCR)
Pdx-1 gene expression ([2]; 48 hrs): nd (not detectable at >40 cycles by RT-PCR)
sox17 gene expression ([2]; 48 hrs): +++ (detectable at less than 35 cycles by RT-PCR with SE less than 0.9)
Gata1 gene expression ([2]; 72 hrs): nd (not detectable at >40 cycles by RT-PCR)
HNF (HNF-3 beta) gene expression ([2]; 72 hrs): + (detectable between 35 cycles and 40 cycles by RT-PCR)
Insulin gene expression ([2]; 72 hrs): + (detectable between 35 cycles and 40 cycles by RT-PCR)
Pdx-1 gene expression ([2]; 72 hrs): nd (not detectable at >40 cycles by RT-PCR)
sox17 gene expression ([2]; 72 hrs): +++ (detectable at less than 35 cycles by RT-PCR with SE less than 0.9)
Gata1 gene expression ([2]; 96 hrs): nd (not detectable at >40 cycles by RT-PCR)
HNF (HNF-3 beta) gene expression ([2]; 96 hrs): nd (not detectable at >40 cycles by RT-PCR)
Insulin gene expression ([2]; 96 hrs): + (detectable between 35 cycles and 40 cycles by RT-PCR)
Pdx-1 gene expression ([2]; 96 hrs): nd (not detectable at >40 cycles by RT-PCR)
sox17 gene expression ([2]; 96 hrs): +++ (detectable at less than 35 cycles by RT-PCR with SE less than 0.9)
Gata1 gene expression ([2]; 120 hrs): nd (not detectable at >40 cycles by RT-PCR)
HNF (HNF-3 beta) gene expression ([2]; 120 hrs): + (detectable between 35 cycles and 40 cycles by RT-PCR)
Insulin gene expression ([2]; 120 hrs): + (detectable between 35 cycles and 40 cycles by RT-PCR)
Pdx-1 gene expression ([2]; 120 hrs): nd (not detectable at >40 cycles by RT-PCR)
sox17 gene expression ([2]; 120 hrs): +++ (detectable at less than 35 cycles by RT-PCR with SE less than 0.9)
Gata1 gene expression ([2]; 144 hrs): nd (not detectable at >40 cycles by RT-PCR)
HNF (HNF-3 beta) gene expression ([2]; 144 hrs): nd (not detectable at >40 cycles by RT-PCR)
Insulin gene expression ([2]; 144 hrs): + (detectable between 35 cycles and 40 cycles by RT-PCR)
Pdx-1 gene expression ([2]; 144 hrs): nd (not detectable at >40 cycles by RT-PCR)
sox17 gene expression ([2]; 144 hrs): +++ (detectable at less than 35 cycles by RT-PCR with SE less than 0.9)
HNF (HNF-3 beta) gene expression ([3]; 24 hrs): + (detectable between 35 and 40 cycles RT-PCR)
Insulin gene expression ([3]; 24 hrs): nd (not detectable at >40 cycles by RT-PCR)
Pdx-1 gene expression ([3]; 24 hrs): +++ (detectable at less than 35 cycles RT-PCR with SE less than 0.9)
glucagon gene expression ([3]; 24 hrs): +++ (detectable at less than 35 cycles RT-PCR with SE less than 0.9)
HNF (HNF-3 beta) gene expression ([3]; 48 hrs): nd (not detectable at >40 cycles by RT-PCR)
Insulin gene expression ([3]; 48 hrs): nd (not detectable at >40 cycles by RT-PCR)
Pdx-1 gene expression ([3]; 48 hrs): nd (not detectable at >40 cycles by RT-PCR)
glucagon gene expression ([3]; 48 hrs): + (detectable between 35 and 40 cycles RT-PCR)
HNF (HNF-3 beta) gene expression ([3]; 72 hrs): nd (not detectable at >40 cycles by RT-PCR)
Insulin gene expression ([3]; 72 hrs): nd (not detectable at >40 cycles by RT-PCR)
Pdx-1 gene expression ([3]; 72 hrs): nd (not detectable at >40 cycles by RT-PCR)
glucagon gene expression ([3]; 72 hrs): nd (not detectable at >40 cycles by RT-PCR)
HNF (HNF-3 beta) gene expression ([3]; 96 hrs): nd (not detectable at >40 cycles by RT-PCR)
Insulin gene expression ([3]; 96 hrs): nd (not detectable at >40 cycles by RT-PCR)
Pdx-1 gene expression ([3]; 96 hrs): nd (not detectable at >40 cycles by RT-PCR)
glucagon gene expression ([3]; 96 hrs): nd (not detectable at >40 cycles by RT-PCR)
HNF (HNF-3 beta) gene expression ([3]; 120 hrs): nd (not detectable at >40 cycles by RT-PCR)
Insulin gene expression ([3]; 120 hrs): nd (not detectable at >40 cycles by RT-PCR)
Pdx-1 gene expression ([3]; 120 hrs): nd (not detectable at >40 cycles by RT-PCR)
glucagon gene expression ([3]; 120 hrs): nd (not detectable at >40 cycles by RT-PCR)
HNF (HNF-3 beta) gene expression ([3]; 144 hrs): nd (not detectable at >40 cycles by RT-PCR)
Insulin gene expression ([3]; 144 hrs): nd (not detectable at >40 cycles by RT-PCR)
Pdx-1 gene expression ([3]; 144 hrs): nd (not detectable at >40 cycles by RT-PCR)
glucagon gene expression ([3]; 144 hrs): nd (not detectable at >40 cycles by RT-PCR)

Reference: patent publication US20080063628A1, “METHODS TO PROMOTE CELL DIFFERENTIATION” (priority 2006, published 2008)
